Legend:
P-gp = assay: in vitro; conditions: dog, MDCK-MDR1
in vivo [1] = conditions: rat, plasma, ip, 2 mg/kg
in vivo [2] = conditions: rat, brain, ip, 2 mg/kg
in vivo [3] = conditions: rat, iv, 2 mg/kg
[4] = rat, in vivo, ip, 2 mg/kg, 1 h
in vivo [5] = conditions: rat, po, 2 mg/kg
in vivo [6] = conditions: rat, brain/plasma, ip, 2 mg/kg
[7] = rat, in vivo, ip, 2 mg/kg, 1 h; remark: listed apart in the source
in vivo [8] = conditions: rat, brain/plasma, ip, 2 mg/kg; remark: listed apart in the source

COc1cc(OC)c2nnc3c(c(C4CC4)nn3C)c2c1 showed a Papp (P-gp) of 62 ×10⁻⁶ cm/s.

With CCCc1nc(C)c2c(C)nc3ccc(OC)nc3n12 the concentration at 1 h (in vivo [1]) was 72 ng/mL, the concentration at 1 h (in vivo [2]) was 118 ng/mL and the Vd (in vivo [3]) was 2.4 L/kg. For the same compound, the “Druguptake(free)/dose” value [4] was 0.4 ng/mL, the bioavailability (in vivo [5]) was 19% and the Kp at 1 h (in vivo [6]) was 1.67. For the same compound, the Papp (P-gp) was 33 ×10⁻⁶ cm/s, the “Cp(f)/dose” value [7] was 0.1 ng/mL and the Kp uu at 1 h (in vivo [8]) was 3.81.

Cn1nc(-c2ccccc2Cl)c2c3cc(F)cc(F)c3nnc21 gave a Papp (P-gp) of 36 ×10⁻⁶ cm/s.

With CCCc1nc(C)c2c(C)nc3scnc3n12 the Papp (P-gp) was 68 ×10⁻⁶ cm/s.

Source: ChEMBL document CHEMBL4371089, “Novel, potent, selective, and brain penetrant phosphodiesterase 10A inhibitors” (Bioorg Med Chem Lett, 2019)
